PubChem BioAssay AID1259246 (Broad Institute, 2017)
Results filed as inconclusive are left out. Active and inactive are the calls of the source.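 How the source made its calls: active means valid dose-response fit whose half-maximal growth-inhibiting concentration is at or below a set limit above the top tested dose; inconclusive means flat fit with effect between 30 and 70%, or poor fit; inactive means half-maximal concentration above a set limit.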

Experiment: antibacterial activity against Clostridioides difficile – 10-point retest, dose response (AID 1259246)
Settings: Clostridioides difficile clinical isolate growth, OD600, 24 h

SMILES	activity change, negative = inhibition (at 120 µM (top of the series))	other results
CO[C@H]1CN(C)C(=O)c2ccc(NC(=O)C3CCC3)cc2OC[C@H](C)N(Cc2ccncc2)C[C@@H]1C	-5.3% (inactive)	–
CO[C@H]1CN(C)C(=O)c2ccc(NC(=O)c3nc4ccccc4s3)cc2OC[C@H](C)N(Cc2ccncc2)C[C@H]1C	18.4% (inactive)	–
C[C@@H]1CN([C@H](C)CO)S(=O)(=O)c2ccc(/C=C/c3ccccc3)cc2O[C@H]1CN(C)C(=O)c1ccncc1	17.1% (inactive)	–
O=C(N[C@H]1CC[C@H](CCNS(=O)(=O)c2ccc(Cl)cc2)O[C@H]1CO)c1ccccn1	-10.3% (inactive)	–
C[C@H]1CN([C@@H](C)CO)C(=O)c2cccc(NC(=O)Nc3ccc(C(F)(F)F)cc3)c2O[C@@H]1CN(C)Cc1ccc2c(c1)OCO2	34.1% (inactive)	–
C[C@H]1CN([C@@H](C)CO)C(=O)c2cccc(NC(=O)Nc3ccccc3)c2O[C@H]1CN(C)Cc1ccc(Oc2ccccc2)cc1	24.3% (inactive)	–
C[C@@H]1CN([C@H](C)CO)S(=O)(=O)c2ccc(C#CC3CCCC3)cc2O[C@H]1CN(C)Cc1cncnc1	38.8% (inactive)	–
C[C@@H]1CCCCO[C@H](CN(C)S(=O)(=O)c2ccc(F)cc2)[C@@H](C)CN([C@H](C)CO)C(=O)c2cc(NC(=O)Nc3cccc4ccccc34)ccc2O1	7.93% (inactive)	–
O=C(C[C@H]1C[C@@H]2c3cc(NC(=O)Nc4ccccc4)ccc3O[C@@H]2[C@H](CO)O1)NC1CCCC1	–	activity change, negative = inhibition (at 135 µM (top of the series)): -0.545% (inactive)
COc1ccc(S(=O)(=O)N(C)C[C@@H]2Oc3ccc(NC(=O)CCCN(C)C)cc3CC(=O)N([C@@H](C)CO)C[C@H]2C)cc1	-5.12% (inactive)	–
C[C@H](CO)N1C[C@H](C)[C@@H](CN(C)S(=O)(=O)c2cn(C)cn2)OCCCC[C@H](C)Oc2ccc(NC(=O)Nc3cccc4ccccc34)cc2C1=O	–	activity change, negative = inhibition (at 60 µM (top of the series)): 4.46% (inactive)
C[C@H]1CCCCO[C@H](CN(C)S(=O)(=O)c2ccc(F)cc2)[C@@H](C)CN([C@@H](C)CO)C(=O)c2cc(NC(=O)Nc3cccc4ccccc34)ccc2O1	21.6% (inactive)	–
CNC[C@H]1Oc2ccc(NC(=O)C3CC3)cc2CC(=O)N([C@H](C)CO)C[C@H]1C	-1.55% (inactive)	–
Cc1ccc(S(=O)(=O)N[C@H]2CC[C@H](CCNS(=O)(=O)Cc3ccccc3)O[C@@H]2CO)cc1	–	activity change, negative = inhibition (at 135 µM (top of the series)): -4.21% (inactive)
C[C@@H]1CN([C@H](C)CO)S(=O)(=O)c2ccc(C#CCN(C)C)cc2O[C@@H]1CN(C)Cc1ccc2c(c1)OCO2	0.003% (inactive)	–
CO[C@@H]1CN(C)C(=O)c2cc(NC(=O)c3ccc(Oc4ccccc4)cc3)ccc2OC[C@H](C)NC[C@H]1C	–	activity change, negative = inhibition (at 135 µM (top of the series)): 24.9% (inactive)
C[C@@H]1CN([C@H](C)CO)C(=O)Cc2cc(NC(=O)C3CC3)ccc2O[C@@H]1CN(C)Cc1ccc(Oc2ccccc2)cc1	22.6% (inactive)	–
C[C@@H]1CN([C@@H](C)CO)C(=O)Cc2cc(NS(C)(=O)=O)ccc2O[C@@H]1CN(C)Cc1ccc(Oc2ccccc2)cc1	–	activity change, negative = inhibition (at 135 µM (top of the series)): 7.12% (inactive)
C[C@@H]1CN([C@@H](C)CO)C(=O)Cc2cc(NS(=O)(=O)c3ccccc3)ccc2O[C@@H]1CN(C)Cc1ccc(-c2ccccc2)cc1	–	activity change, negative = inhibition (at 135 µM (top of the series)): 17.3% (inactive)
O=C(C[C@H]1C[C@H]2c3cc(NC(=O)Nc4ccccc4)ccc3O[C@H]2[C@@H](CO)O1)NC1CCCC1	–	activity change, negative = inhibition (at 135 µM (top of the series)): 11% (inactive)

SMILES	activity change, negative = inhibition (at 120 µM (top of the series))	other results
CO[C@@H]1CN(C)C(=O)c2ccc(NC(=O)C3CCC3)cc2OC[C@@H](C)N(Cc2ccncc2)C[C@H]1C	-0.707% (inactive)	–
C[C@H]1CN([C@@H](C)CO)C(=O)c2cccc(NC(=O)Nc3ccc(C(F)(F)F)cc3)c2O[C@@H]1CN(C)C(=O)NC1CCCCC1	19.5% (inactive)	–
C[C@H](CO)N1C[C@H](C)[C@H](CN(C)Cc2ccc(Oc3ccccc3)cc2)Oc2c(NC(=O)Nc3ccccc3)cccc2C1=O	10.9% (inactive)	–
C[C@H]1CN([C@@H](C)CO)S(=O)(=O)c2ccc(C#CC3CCCCC3)cc2O[C@@H]1CN(C)Cc1cccnc1	20.8% (inactive)	–
C[C@@H]1CN([C@@H](C)CO)C(=O)Cc2cc(NC(=O)C3CC3)ccc2O[C@@H]1CN(C)Cc1ccc(-c2ccccc2)cc1	20.7% (inactive)	–
C[C@@H]1CN([C@H](C)CO)C(=O)c2cc(NC(=O)Nc3cccc4ccccc34)ccc2O[C@@H](C)CCCCO[C@H]1CN(C)S(=O)(=O)c1ccccc1	9.12% (inactive)	–
O=C(C[C@@H]1C[C@H]2c3cc(NC(=O)Nc4ccc(F)cc4)ccc3O[C@H]2[C@@H](CO)O1)NC1CCCCC1	-2.82% (inactive)	–
CO[C@H]1CN(C)C(=O)c2cc(NC(=O)c3nc4ccccc4s3)ccc2OC[C@H](C)N(Cc2ccncc2)C[C@@H]1C	4.91% (inactive)	–
C[C@H](CO)N1C[C@H](C)[C@H](CN(C)Cc2ccc(-c3ccccc3)cc2)Oc2ccc(NC(=O)CCCN(C)C)cc2CC1=O	37.3% (inactive)	–
CO[C@H]1CN(C)C(=O)c2cc(NC(=O)c3ccc(-c4ccccc4)cc3)ccc2OC[C@@H](C)NC[C@@H]1C	30.6% (inactive)	–
Cc1ccc(S(=O)(=O)N[C@@H]2CC[C@H](CCNS(=O)(=O)Cc3ccccc3)O[C@@H]2CO)cc1	-5.03% (inactive)	–
COc1ccc(NC(=O)Nc2cccc3c2O[C@@H](CN(C)Cc2ccc(Oc4ccccc4)cc2)[C@H](C)CN([C@H](C)CO)C3=O)cc1	16.6% (inactive)	–
CNC[C@@H]1Oc2ccc(NC(=O)CCCN(C)C)cc2CC(=O)N([C@H](C)CO)C[C@H]1C	2.33% (inactive)	–
C[C@@H]1CN([C@H](C)CO)C(=O)c2cccc(NC(=O)Nc3ccc4c(c3)OCO4)c2O[C@@H]1CN(C)Cc1ccc(-c2ccccc2)cc1	–	activity change, negative = inhibition (at 135 µM (top of the series)): 12.1% (inactive)
CNC[C@H]1Oc2c(NC(=O)Nc3ccc4c(c3)OCO4)cccc2C(=O)N([C@@H](C)CO)C[C@H]1C	4.27% (inactive)	–
CC(C)NC(=O)N(C)C[C@@H]1OCCCC[C@H](C)Oc2ccc(NC(=O)Nc3cccc4ccccc34)cc2C(=O)N([C@H](C)CO)C[C@@H]1C	60.5% (inactive)	–
C[C@@H]1CCCCO[C@@H](CN(C)S(=O)(=O)c2ccc(F)cc2)[C@H](C)CN([C@@H](C)CO)C(=O)c2cc(NC(=O)Nc3cccc4ccccc34)ccc2O1	18.9% (inactive)	–
CO[C@H]1CN(C)C(=O)c2cc(NC(=O)c3nc4ccccc4s3)ccc2OC[C@@H](C)N(Cc2ccncc2)C[C@@H]1C	5.15% (inactive)	–
CO[C@H]1CN(C)C(=O)c2cc(NC(=O)c3ccccc3)ccc2OC[C@H](C)NC[C@H]1C	–	activity change, negative = inhibition (at 135 µM (top of the series)): -3.19% (inactive)
C[C@@H]1CN([C@@H](C)CO)C(=O)c2cccc(NC(=O)Nc3ccc4c(c3)OCO4)c2O[C@@H]1CN(C)Cc1ccccc1	19.1% (inactive)	–

SMILES	activity change, negative = inhibition (at 120 µM (top of the series))	other results
O=C(Nc1ccc(-c2ccccc2)cc1)[C@H]1[C@H](CO)[C@H]2Cn3c(cccc3=O)[C@H]2N1CC1CCCCC1	–	activity change, negative = inhibition (at 135 µM (top of the series)): 32.6% (inactive)
CO[C@H]1CN(C)C(=O)c2cc(NC(=O)c3ccc(-c4ccccc4)cc3)ccc2OC[C@H](C)NC[C@H]1C	25.8% (inactive)	activity change, negative = inhibition (at 135 µM (top of the series)): 102% (inactive)
CC(C)CC#Cc1ccc2c(c1)O[C@@H](CN(C)Cc1ccc3c(c1)OCO3)[C@@H](C)CN([C@@H](C)CO)S2(=O)=O	22.9% (inactive)	–
COC(=O)C[C@H]1C[C@@H]2c3cc(NC(=O)C4CCC4)ccc3O[C@@H]2[C@@H](CO)O1	-6.56% (inactive)	–
C[C@@H]1CN([C@@H](C)CO)C(=O)Cc2cc(NC(=O)CCCN(C)C)ccc2O[C@H]1CN(C)Cc1ccncc1	-4.05% (inactive)	–
CCCC#Cc1ccc2c(c1)O[C@H](CN(C)Cc1ccc3c(c1)OCO3)[C@H](C)CN([C@H](C)CO)S2(=O)=O	33% (inactive)	–
C[C@H](CO)N1C[C@H](C)[C@@H](CN(C)Cc2ccc(Oc3ccccc3)cc2)Oc2c(NC(=O)Nc3ccccc3)cccc2C1=O	23.8% (inactive)	–
O=C(C[C@H]1C[C@H]2c3cc(NC(=O)C4CCC4)ccc3O[C@H]2[C@@H](CO)O1)NCc1ccc(Cl)cc1	2.85% (inactive)	–
CC(C)CC#Cc1ccc2c(c1)O[C@@H](CN(C)Cc1ccc3c(c1)OCO3)[C@H](C)CN([C@H](C)CO)S2(=O)=O	17.8% (inactive)	–
O=C(C[C@H]1C[C@H]2c3cc(NC(=O)Nc4ccc(F)cc4)ccc3O[C@H]2[C@@H](CO)O1)NC1CCCCC1	–	activity change, negative = inhibition (at 135 µM (top of the series)): -1.5% (inactive)
CO[C@@H]1CN(C)C(=O)c2cc(NC(=O)c3ccc(-c4ccccc4)cc3)ccc2OC[C@@H](C)NC[C@@H]1C	6.12% (inactive)	–
CO[C@@H]1CN(C)C(=O)c2cc(NC(=O)c3nc4ccccc4s3)ccc2OC[C@H](C)N(Cc2ccncc2)C[C@@H]1C	13.2% (inactive)	–
C[C@@H]1CN([C@H](C)CO)C(=O)c2cc(NC(=O)Nc3cccc4ccccc34)ccc2O[C@@H](C)CCCCO[C@H]1CN(C)C(=O)c1ccccc1	–	activity change, negative = inhibition (at 135 µM (top of the series)): 14.9% (inactive)
COc1ccccc1CNC(=O)C[C@@H]1C[C@@H]2c3cc(NC(=O)NC4CCCC4)ccc3O[C@@H]2[C@@H](CO)O1	2.23% (inactive)	–
O=C(C[C@@H]1C[C@@H]2c3cc(NS(=O)(=O)c4ccc(F)cc4)ccc3O[C@@H]2[C@@H](CO)O1)NCc1ccc(-c2ccccc2)cc1	–	activity change, negative = inhibition (at 135 µM (top of the series)): 18.3% (inactive)
Cc1ccc(S(=O)(=O)N[C@H]2CC[C@@H](CCNS(=O)(=O)Cc3ccccc3)O[C@@H]2CO)cc1	-4.91% (inactive)	–
C[C@@H]1CN([C@@H](C)CO)C(=O)Cc2cc(NC(=O)CCCN(C)C)ccc2O[C@H]1CN(C)S(C)(=O)=O	–	activity change, negative = inhibition (at 135 µM (top of the series)): -4.68% (inactive)
C[C@H](CO)N1C[C@H](C)[C@@H](CN(C)Cc2ccc(-c3ccccc3)cc2)Oc2c(NC(=O)Nc3ccc(C(F)(F)F)cc3)cccc2C1=O	12.2% (inactive)	–
